The values below come from patent publication US20250170065A1, “THERAPEUTIC COMPOUNDS, FORMULATIONS, AND USE THEREOF” (priority 2022, published 2025).

One series can be described thus: Solubility of TTI-101. The class given is physicochemical. The text has this: The compound of Formula (I) (also referred to as TTI-101) is highly insoluble (“brick dust”). […] Furthermore, the compound of Formula (I) has a crystalline structure with high crystal-lattice energy, contributing to rapid precipitation or crystallization of the compound from solution. Its low solubility and high crystallinity have contributed to various difficulties in preparing formulations that are suitable for administration in human subjects. Current formulations are liquid formulations delivered via capsules. For example, a formulation of the compound of formula (I) dissolved in 60:40 Labrasol®/PEG400 and encapsulated into a hard gelatin capsule (unit dose: 36 mg), while showing encouraging results in 3 dose cohorts, was prevented from advancing to a fourth patient cohort (25.6 mg/kg/day as 12.8 mg/kg twice daily (BID) doses) because of an unacceptably high pill burden. For example, a 70 kg subject in Cohort 4 would require […] per day split into BID doses. […]

For series [1] the following is noted: in vivo. The method, then:
Particle size reduction for TTI-101 by micronization and nano-milling provided poor bioavailability (e.g., 10-20 times lower bioavailability than a solution of TTI-101). Hot melt extrusion (HME) was used and the resulting dispersions were evaluated using DSC miscibility, DSC extrudability and rheology studies. Polymer systems tried include: Soluplus; Soluplus+Kolliphor RH40; Soluplus+Vitamin E TPGS; and PVPVA64+Kolliphor RH40.

For the molecule `COc1ccc(S(=O)(=O)Nc2cc(-c3c(O)ccc4ccccc34)c(O)c3ccccc23)cc1` [TTI-101], in the series “Solubility of TTI-101”, the “solubility in aqueous solutions” value is “insoluble” and the “solubility in most solvents” value is on record as “relatively low solubility”. Further, the “bioavailability lower than a solution of TTI-101” value in series [1] is 10-20 times.
